Test results reported in patent publication US20090186865A1, “Lyophilization Process” (SANDOZ AG, priority 2005, published 2009).

Experiment: Stability studies of dissolved products versus temperature
Format: physicochemical
Conditions: in aqueous solution

| Inflexion point of degradation of dissolved product with temperature | SMILES |
| --- | --- |
| around 15 °C | C[C@]1(Cn2ccnn2)[C@H](C(=O)O)N2C(=O)C[C@H]2S1(=O)=O [Tazobactam] |
| around 15 °C | CCN1CCN(C(=O)N[C@@H](C(=O)N[C@@H]2C(=O)N3[C@@H]2SC(C)(C)[C@@H]3C(=O)O)c2ccccc2)C(=O)C1=O [Piperacillin] |
